# According to patent US20090274773A1, “ANTIPROLIFERATIVE COMBINATION COMPRISING CYC-682 AND A CYTOTOXIC AGENT” (Cyclacel Limited, priority 2005, published 2009):
# Read-outs that look alike come from different tables or passages of the source.
# Key:
# [1] = test system: panel of human cancer cell lines; experiment: Antiproliferative effects as single agent in a panel of human cancer cell lines (MTT); format: cell-based
# Method: The MTT assay was carried out as described previously (Hansen M B, Nielsen S E, Berg K. Re-examination and further development of a precise and rapid dye method for measuring cell growth/cell kill. J Immunol Methods. 1989 May 12; 119(2):203-10). In brief, cells were seeded in 96-well tissue culture plates at a density of 2×10^3 cells/well. Cell viability was determined after a 120-hour incubation, by the calorimetric conversion of yellow, water-soluble tetrazolium MTT (3-[4,5-dimethylthiazol-2-yl]-2,5-diphenyltetrazolium bromide; Sigma, Saint-Quentin Fallavier, France), into purple, water-insoluble formazan. This reaction is catalyzed by mitochondrial dehydrogenases and is used to estimate the relative number of viable cells (Mosmann, T, Rapid calorimetric assay for cellular growth and survival: application to proliferation and cytotoxicity assays. J Immunol Methods. 1983 Dec. 16; 65 (1-2):55-63). Cells were incubated with 0.4 mg/ml MTT for 4 hours at 37° C. After incubation, the supernatant was discarded, the cell pellet was resuspended in 0.1 ml of DMSO and the absorbance was measured at 560 nm using a microplate reader (Dynatech, Michigan). […]
# The cells were seeded at 2×10^3 cells/well in 96-well plates and treated 24 hours later with increasing concentrations of CYC682. […] Growth inhibition was then determined by the MTT assay. […]
# OVCAR1 = experiment: MTT growth inhibition assay, single agent; format: cell-based, human; settings: Homo sapiens, read-out: Antiproliferative effects IC50s (MTT assay)
# Method: (§1) All cell lines were obtained from the ATCC (Rockville, Md.). Cells were grown as monolayers in RPMI medium supplemented with 10% fetal calf serum (Invitrogen, Cergy-Pontoise, France), 2 mM glutamine, 100 units/ml penicillin and 100 μg/ml streptomycin. All cells were split twice a week using trypsin/EDTA (0.25% and 0.02%, respectively; Invitrogen, Cergy-Pontoise, France) and seeded at a concentration of 2.5×10^4 cells/ml. All cell lines were tested regularly for Mycoplasma contamination by PCR using a Stratagene kit (La Jolla, Calif.).
# (§2) The MTT assay was carried out as described previously (Hansen M B, Nielsen S E, Berg K. Re-examination and further development of a precise and rapid dye method for measuring cell growth/cell kill. J Immunol Methods. 1989 May 12; 119(2):203-10). In brief, cells were seeded in 96-well tissue culture plates at a density of 2×10^3 cells/well. Cell viability was determined after a 120-hour incubation, by the calorimetric conversion of yellow, water-soluble tetrazolium MTT (3-[4,5-dimethylthiazol-2-yl]-2,5-diphenyltetrazolium bromide; Sigma, Saint-Quentin Fallavier, France), into purple, water-insoluble formazan. This reaction is catalyzed by mitochondrial dehydrogenases and is used to estimate the relative number of viable cells (Mosmann, T, Rapid calorimetric assay for cellular growth and survival: application to proliferation and cytotoxicity assays. J Immunol Methods. 1983 Dec. 16; 65 (1-2):55-63). Cells were incubated with 0.4 mg/ml MTT for 4 hours at 37° C. After incubation, the supernatant was discarded, the cell pellet was resuspended in 0.1 ml of DMSO and the absorbance was measured at 560 nm using a microplate reader (Dynatech, Michigan). Wells with untreated cells or with drug-containing medium without cells were used as positive and negative controls, respectively. Growth inhibition curves were plotted as a percentage of untreated control cells.
# (§3) The cells were seeded at 2×10^3 cells/well in 96-well plates and treated 24 hours later with increasing concentrations of CYC682. After incubation times of 1 hour, 24 hours or 48 hours, the cells were washed and post-incubated in drug-free medium for 72 hours. Growth inhibition was then determined by the MTT assay.
# COLO205 = experiment: MTT growth inhibition assay, single agent; format: cell-based, human; settings: Homo sapiens, read-out: Antiproliferative effects IC50s (MTT assay)
# Method: as §1, §2, §3
# IGROV1 = experiment: MTT growth inhibition assay, single agent; format: cell-based, human; settings: Homo sapiens, read-out: Antiproliferative effects IC50s (MTT assay)
# Method: as §1, §2, §3
# HOP62 = experiment: MTT growth inhibition assay, single agent; format: cell-based, human; settings: Homo sapiens, read-out: Antiproliferative effects IC50s (MTT assay)
# Method: as §1, §2, §3
# HT29 = experiment: MTT growth inhibition assay, single agent; format: cell-based, human; settings: Homo sapiens, read-out: Antiproliferative effects IC50s (MTT assay)
# Method: as §1, §2, §3
# HCC2998 = experiment: MTT growth inhibition assay, single agent; format: cell-based, human; settings: Homo sapiens, read-out: Antiproliferative effects IC50s (MTT assay)
# Method: as §1, §2, §3
# MCF7 = experiment: MTT growth inhibition assay, single agent; format: cell-based, human; settings: Homo sapiens, read-out: Antiproliferative effects IC50s (MTT assay)
# Method: as §1, §2, §3
# HCT116 = experiment: MTT growth inhibition assay, single agent; format: cell-based, human; settings: Homo sapiens, read-out: Antiproliferative effects IC50s (MTT assay)
# Method: as §1, §2, §3
# MDA-MB-435 = experiment: MTT growth inhibition assay, single agent; format: cell-based, human; settings: Homo sapiens, read-out: Antiproliferative effects IC50s (MTT assay)
# Method: as §1, §2, §3
# HOP92 = experiment: MTT growth inhibition assay, single agent; format: cell-based, human; settings: Homo sapiens, read-out: Antiproliferative effects IC50s (MTT assay)
# Method: as §1, §2, §3
# colon cancer = settings: cited from earlier work
# [2] = phase I, patients with a variety of cancers; cited from earlier work
# NSCLC cell line H1299 = experiment: CNDAC combinations (alamar blue, Calcusyn Combination Index); format: cell-based, human
# Method: Experiments in the NSCLC cell lines H1299 or RERF-LC-MA were performed in 96-well plates, with cells seeded at a density of 3,000/well, in DMEM containing 10% (v/v) FCS. Stock solutions of all drugs were made up in dimethylsulfoxide (DMSO), with the exception of gemcitabine, which was dissolved in 0.9% (w/v) sterile saline solution.
# For experimental assessment of potential synergistic interactions, the concomitant treatment regime involved simultaneous treatment of cells with CNDAC and the other agent under investigation for 72 h, alongside suitable controls of cells treated with the individual compounds alone for 72 hr. In the sequential treatment regimes, one drug was added to the cells 2 h after plating, and left for 24 h. Media was then aspirated, replaced with fresh media containing the second drug and incubated for 72 h. The two individual treatment controls for the sequential treatment regime involved substituting one of the drug treatments with drug-free media. […] Drug interactions were analysed using the Calcusyn software package (BioSoft, Cambridge, U.K.) described below.
# HCT116 cancer cell line = experiment: CYC682 drug-combination study (MTT, Chou and Talalay combination index, isobolograms); format: cell-based, human; settings: HCT116; named agent given prior to CYC682
# Method: (§4) For simultaneous drug exposure, cells were seeded at 2×10^3 cells/well in 96-well plates and treated 24 hours later with increasing concentrations of CYC682 alone or with various concentrations of another drug corresponding to the IC20, IC40 or IC60 values. After approximately four doubling times (120 hours), the growth inhibitory effect was measured by the MTT assay.
# (§5) Cells were seeded at 2×10^3 cells/well in 96-well plates and allowed to grow for 24 hour. Cells were then exposed to various concentrations of the first drug for 1 hour/24 hours/48 hours, the drug was removed, the cells were washed and the second drug was added. After additional drug exposure, the second drug was removed, the cells were washed and incubated in drug-free medium for 72 hours. Growth inhibition was then determined by the MTT assay.
# (§6) Effects of drug combinations were evaluated using the Chou and Talalay method which is based on the median-effect principle (Chou T C, Talalay P. Quantitative analysis of dose-effect relationships: the combined effects of multiple drugs or enzyme inhibitors. Adv Enzyme Regul. 1984; 22:27-55). […] On the basis of the slope of the curve for each drug in a combination, it can be determined whether the drugs have mutually nonexclusive effects (e.g., independent or interactive modes of action).
# (§7) The combination index (CI) is then determined by the equation:
# (§8) CI=[(C)1/(Cx)1]+[(C)2/(Cx)2]+[α(C)1(C)2/(Cx)1(Cx)2],
# (§9) where (Cx)1 is the concentration of drug 1 required to produce an x percent effect of that drug alone, and (C)1, the concentration of drug 1 required to produce the same x percent effect in combination with (C)2. If the mode of action of the drugs is mutually exclusive or nonexclusive, then α is 0 or 1, respectively. CI values will be calculated with this equation using different values of fa (i.e., for different degrees of cell growth inhibition). CI values of <1 indicate synergy, the value of 1 indicates additive effects, and values >1 indicate antagonism. Data were analyzed on an IBM-PC computer using concentration-effect analysis for microcomputer software (Biosoft, Cambridge, UK). For statistical analysis and graphs we will use Instat and Prism software (GraphPad, San Diego, USA). The dose-effect relationships for the drugs tested, alone or in paired combinations, were subjected to median-effect plot analysis to determine their relative potency (IC50), shape (m), and conformity (r) in each selected cell line. As stated above, the IC50 and m values were respectively used to calculate synergism and antagonism on the basis of the CI equation. Results were expressed as the mean±standard deviation of at least 3 experiments performed in duplicate. In each experiment, cells were exposed to the paired combinations for 48 hours as described above. Means and standard deviations were compared using Student's t-test (two-sided p value).
# (§10) The effect of sequential and simultaneous exposure (FIG. 2) to CYC682 with oxaliplatin, doxorubicin, docetaxel and gemcitabine was studied in two sensitive colon cancer cell lines—COLO205 and HCT116 using combination indices that represent an affected fraction for the concentration of drugs corresponding to IC50 as previously described by Chou and Talalay.
# COLO205 cancer cell line = experiment: as above; format: cell-based, human; settings: COLO205; named agent given prior to CYC682
# Method: as §4, §5, §6, §7, §8, §9, §10
# [3] = named agent in combination with CNDAC, H1299, simultaneous treatment 72 h
structure (smiles),measurement,setting,value
"N#C[C@H]1[C@H](O)[C@@H](CO)O[C@H]1n1ccc(N)nc1=O [CNDAC, 1-(2-C-Cyano-2-deoxy-β-D-arabino-pentafuranosyl)-cytosine]",Cytotoxicity after 24 hour exposure,"[1]; 24 hour exposure, panel of cell lines",not sufficient
same,IC50,OVCAR1; 48 hours exposure,> 900 µM
same,IC50,"COLO205; COLO 205, 48 hours exposure",8 ± 2 µM
same,IC50,"IGROV1; IGROV-1, 48 hours exposure",89 ± 12 µM
same,IC50,"HOP62; HOP-62, 48 hours exposure",7 ± 1.8 µM
same,IC50,"HT29; HT-29, 48 hours exposure",160 ± 43 µM
same,IC50,"HCC2998; HCC 2998, 48 hours exposure",110 ± 21 µM
same,IC50,MCF7; 48 hours exposure,850 ± 60 µM
same,IC50,"HCT116; HCT-116, 48 hours exposure",2.8 ± 0.6 µM
same,IC50,MDA-MB-435; 48 hours exposure,95 ± 13 µM
same,IC50,"HOP92; HOP-92, 48 hours exposure",23 ± 6 µM
"CCCCCCCCCCCCCCCC(=O)Nc1ccn([C@@H]2O[C@H](CO)[C@@H](O)[C@@H]2C#N)c(=O)n1 [CYC682, 2′-cyano-2′-deoxy-N^4-palmitoyl-1-β-D-arabinofuranosylcytosine]",Antiproliferative activity in panel,[1]; most cancer cell lines,antiproliferative activity at micromolar concentrations
same,Anticancer activity in a model of colon cancer,colon cancer; in vivo,strong anticancer activity
same,"Increasing survival and preventing spread of colon cancer metastases to the liver, versus gemcitabine or 5-FU",colon cancer; same colon cancer model,superior
same,Dose limiting toxicity,[2],myelosuppression
same,Tolerability in humans,[2],well tolerated
same,IC50,OVCAR1; 48 hours exposure,45 ± 7 µM
same,IC50,"COLO205; COLO 205, 48 hours exposure",5 ± 0.8 µM
same,IC50,"IGROV1; IGROV-1, 48 hours exposure",6.5 ± 1.6 µM
same,IC50,"HOP62; HOP-62, 48 hours exposure",6 ± 1.7 µM
same,IC50,"HT29; HT-29, 48 hours exposure",4.5 ± 0.7 µM
same,IC50,"HCC2998; HCC 2998, 48 hours exposure",3.5 ± 0.8 µM
same,IC50,MCF7; 48 hours exposure,7 ± 1.8 µM
same,IC50,"HCT116; HCT-116, 48 hours exposure",3 ± 0.6 µM
same,IC50,MDA-MB-435; 48 hours exposure,67 ± 14 µM
same,IC50,"HOP92; HOP-92, 48 hours exposure",38 ± 8 µM
"Nc1ccn([C@@H]2O[C@H](CO)[C@@H](O)C2(F)F)c(=O)n1 [Gemcitabine, 2′-deoxy-2′,2′-difluorocytidine]",Interaction with CNDAC at ED50 (in words),"NSCLC cell line H1299; H1299, concomitant treatment",synergy
same,"Interaction with CNDAC (in words), summary of Table 3","NSCLC cell line H1299; combination with CNDAC, regime not specified",synergistic drug interactions
same,"Combination Index at ED50, Concomitant",NSCLC cell line H1299; [3],0.65
same,"Combination Index at ED75, Concomitant",NSCLC cell line H1299; [3],1.83
same,"Combination Index at ED90, Concomitant",NSCLC cell line H1299; [3],6.11
same,Interaction with CYC682 (isobologram),HCT116 cancer cell line,synergistic
same,Interaction with CYC682 (isobologram),COLO205 cancer cell line,synergistic
same,IC50,OVCAR1; 24 hours exposure,1.2 ± 0.2 µM
same,IC50,"COLO205; COLO 205, 24 hours exposure",0.2 ± 0.1 µM
same,IC50,"IGROV1; IGROV-1, 24 hours exposure",0.02 ± 0.004 µM
same,IC50,"HOP62; HOP-62, 24 hours exposure",0.01 ± 0.002 µM
same,IC50,"HT29; HT-29, 24 hours exposure",0.015 ± 0.003 µM
same,IC50,"HCC2998; HCC 2998, 24 hours exposure",0.01 ± 0.002 µM
same,IC50,MCF7; 24 hours exposure,0.01 ± 0.002 µM
same,IC50,"HCT116; HCT-116, 24 hours exposure",0.05 ± 0.01 µM
same,IC50,MDA-MB-435; 24 hours exposure,0.04 ± 0.008 µM
same,IC50,"HOP92; HOP-92, 24 hours exposure",0.02 ± 0.004 µM
